From ChEMBL document CHEMBL4414633, “Investigation of the Factors That Dictate the Preferred Orientation of Lexitropsins in the Minor Groove of DNA” (J Med Chem, 2019)
The source made the active and inactive calls. The rule behind the calls is not given here.

Legend:
[1] = Binding affinity to synthetic d(CGACTAGTCG)2 DNA sequence by NMR analysis
[2] = Binding affinity to synthetic d(5'-GCGAGTACTCGC-3') DNA sequence assessed as change in heat by ITC assay
[3] = Binding affinity to synthetic d(5'-GCGACTAGTCGC-3') DNA sequence assessed as change in heat by ITC assay

In the case of CC(C)c1sc(NC(=O)c2cc(NC(=O)c3cc(NC=O)cn3C)cn2C)nc1C(=O)NCCCN(C)C, the Activity [1] is reported as “Active”.
For CC(C)c1sc(NC(=O)CCCN(C)C)nc1C(=O)Nc1cc(C(=O)Nc2cc(C(N)=O)n(C)c2)n(C)c1, the Activity [2] was “inactive” and the Activity [3] was “inactive”.
